According to article PMC7180491, “Synthesis and Biological Evaluation of Novel (thio)semicarbazone-Based Benzimidazoles as Antiviral Agents against Human Respiratory Viruses” (Molecules, 2020):
Entries after “also recorded” stand apart in the source; their conditions may differ. Read-outs that look alike come from different tables or passages of the source.

Columns and labels:
[1] = system: Respiratory syncytial virus (RSV; strain Long); assay: microbe, parasite or virus in culture; type: cell-based
in vitro [2] = settings: African green monkey
[3] = system: Influenza A/H1N1 (A/Ned/378/05); assay: microbe, parasite or virus in culture; type: cell-based, human influenza virus; settings: read-out: Antiviral EC50 Influenza A/H1N1
[4] = system: Influenza A/H3N2 (A/HK/7/87); assay: microbe, parasite or virus in culture; type: cell-based, human influenza virus; settings: read-out: Antiviral EC50 Influenza A/H3N2
in vitro [5] = settings: human
[6] = system: four mammalian cell lines
human coronavirus 229E = assay: Antiviral assay against human coronavirus 229E in HEL cells, MTS readout; type: cell-based
in vitro [7] = settings: dog
in vitro [8] = settings: human; remark: listed apart in the source
[9] = system: Respiratory syncytial virus (RSV; strain Long); type: cell-based; settings: read-out: Anti-RSV EC50, microscopic method
[10] = human respiratory syncytial virus, HEp-2, read-out: Antiviral EC50 RSV
[11] = Human coronavirus 229E, MTS assay, HEL cells

In the case of “2-(1-{2-[(2H-Benzo[d][1,2,3]triazol-2-yl)methyl]-1-[3-(N,N-diethylamino)propyl]-1H-benzo[d]imidazol-5-yl}ethylidene)hydrazine-1-carbothioamide [Compound 21]”, the “Anti-RSV activity (in words)” value [1] is reported as “inactive”.

Work on `CC(=NNC(N)=O)c1ccc2c(c1)nc(Cn1nc3ccccc3n1)n2CCN(C)C` yielded a melting point of 209 to 212 °C.

With `NC(=O)c1ncn([C@@H]2O[C@H](CO)[C@@H](O)[C@H]2O)n1` [Ribavirin, reference compound] the EC50 [1, 10] was 6.7 µM, the CC50 (in vitro [2]) was over 250 µM and the EC50 ([3]; Influenza A virus, H1N1, MDCK) was 7.4 µM. It also gave an EC50 ([4]; Influenza A virus, H3N2, MDCK) of 7.5 µM and a CC50 (in vitro [5]) of over 250 µM.

In the case of `CC(=NNC(N)=S)c1ccc2c(c1)nc(Cn1nc3ccccc3n1)n2CCCN(C)C` [Compound 19, 2-(1-{2-[(2H-Benzo[d][1,2,3]triazol-2-yl)methyl]-1-[3-(N,N-dimethylamino)propyl]-1H-benzo[d]imidazol-5-yl}ethylidene)hydrazine-1-carbothioamide], the “Anti-RSV activity (in words)” value [1] is reported as “inactive” and the melting point is reported as 212 to 214 °C.

`CC(=NNC(N)=S)c1ccc2c(c1)nc(Cn1nc3ccccc3n1)n2CCN(C)C` gave a melting point of 214 to 217 °C.

`CC(=NNC(N)=O)c1ccc2c(c1)nc(Cc1ccc(Cl)cc1)n2CCCN(C)C` showed a melting point of 211 to 212.5 °C.

For `CCN(CC)CCCn1c(Cc2ccc(OC)cc2)nc2cc(C(C)=NNC(N)=O)ccc21` [Compound 17, 2-(1-{1-[3-(N,N-Diethylamino)propyl]-2-(4-methoxybenzyl)-1H-benzo[d]imidazol-5-yl}-ethylidene)hydrazine-1-carboxamide], the EC50 [1, 10] was over 100 µM, the “Cytotoxicity (in words)” value [6] was “produced cytotoxicity in two of the four cell lines” and the CC50 (in vitro [2]) was 43 µM. For the same molecule, the EC50 (human coronavirus 229E; [11]) was 41 µM, the CC50 (in vitro [7]) was over 100 µM and the melting point was 190 to 192 °C. It also gave an EC50 ([3]; Influenza A virus, H1N1, MDCK) of 47 µM and an EC50 ([4]; Influenza A virus, H3N2, MDCK) of over 100 µM.

With `CCN(CC)CCCn1c(Cc2ccccc2)nc2cc(C(C)=NNC(N)=S)ccc21` [Compound 8, 2-(1-{2-Benzyl-1-[3-(N,N-diethylamino)propyl]-1H-benzo[d]imidazol-5-yl}ethylidene)-hydrazine-1-carbothioamide] the CC50 (in vitro [8]) was over 100 µM, the EC50 [1, 10] was over 100 µM and the CC50 (in vitro [2]) was 44 µM. For the same molecule, the EC50 (human coronavirus 229E; [11]) was 56 µM, the CC50 (in vitro [7]) was over 100 µM and the EC50 ([3]; Influenza A virus, H1N1, MDCK) was 38 µM. The EC50 ([4]; Influenza A virus, H3N2, MDCK) was over 100 µM and the CC50 (in vitro [5]) was over 100 µM.

Work on `CC(=O)N[C@H]1[C@H]([C@H](O)[C@H](O)CO)OC(C(=O)O)=C[C@@H]1N=C(N)N` [Zanamivir, reference compound] yielded a CC50 (in vitro [7]) of over 100 µM, an EC50 ([3]; Influenza A virus, H1N1, MDCK) of 0.6 µM and an EC50 ([4]; Influenza A virus, H3N2, MDCK) of 31 µM.

In the case of “dextran sulfate MW 10,000 [DS-10,000, reference compound]”, the “Antiviral EC50 RSV” value [1] is reported as 0.01 µg/mL.

“2-(1-{2-[(2H-Benzo[d][1,2,3]triazol-1-yl)methyl]-1-[3-(N,N-dimethylamino)propyl]-1H-benzo[d]imidazol-5-yl}ethylidene)hydrazine-1-carbothioamide [Compound 22]” showed a CC50 (MDCK cells) of over 100 µM, a CC50 (Vero cells) of over 100 µM and an EC50 ([1]; read-out: Antiviral EC50 RSV) of 7 µM. For the same molecule, the EC50 [9] was 8.9 µM, the EC50 (human coronavirus 229E) was over 100 µM and the EC50 [3] was 41 µM. The CC50 (HEL cells) was 100 µM, the EC50 [4] was over 100 µM and the CC50 (Hep-2 cells) was over 100 µM.

With `CC(=NNC(N)=S)c1ccc2c(c1)nc(Cc1ccc(Cl)cc1)n2CCCN(C)C` [Compound 4, 2-{1-[2-(4-Chlorobenzyl)-1-[3-(N,N-dimethylamino)propyl]-1H-benzo[d]imidazol-5-yl]-ethylidene}hydrazine-1-carbothioamide] the “Anti-RSV activity (in words)” value [1] was “poorly effective; also recorded: inactive” and the melting point was 110 to 111 °C.

Molecule `CCN(CC)CCCn1c(Cc2ccc(OC)cc2)nc2cc(C(C)=NNC(N)=S)ccc21` has a melting point of 180.7 to 182.9 °C.

Work on `CCN(CC)CCCn1c(Cc2ccccc2)nc2cc(C(C)=NNC(N)=O)ccc21` [Compound 16, 2-(1-{1-[3-(N,N-Diethylamino)propyl]-2-benzyl-1H-benzo[d]imidazol-5-yl}ethylidene)-hydrazine-1-carboxamide] yielded a CC50 (in vitro [8]) of over 100 µM, an EC50 [1, 10] of over 100 µM and a CC50 (in vitro [2]) of over 100 µM. The EC50 (human coronavirus 229E; [11]) was 39 µM, the CC50 (in vitro [7]) was over 100 µM and the EC50 ([3]; Influenza A virus, H1N1, MDCK) was 47 µM. It also gave an EC50 ([4]; Influenza A virus, H3N2, MDCK) of over 100 µM and a CC50 (in vitro [5]) of over 100 µM.

B1: UDA: UDA lectin, reference in the coronavirus 229E assay (protein, UniProt P11218 24-372, looked up)
Lectin/endochitinase 1: QRCGSQGGGGTCPALWCCSIWGWCGDSEPYCGRTCENKCWSGERSDHRCGAAVGNPPCGQDRCCSVHGWCGGGNDYCSGSKCQYRCSSSVRGPRVALSGNSTANSIGNVVVTEPLFDQMFSHRKDCPSQGFYSYHSFLVAAESFPAFGTIGDVATRKREVAAFLAHISQATSGERSDVENPHAWGLCHINTTTVTENDFCTSSDWPCAAGKKYSPRGPIQLTHNFNYGLAGQAIGEDLIQNPDLVEKDPIISFKTALWFWMSQHDNKPSCHDIVLNANSAANRIPNKGVIGNIISRAFGHDDFAVRSSSIGFYKRYCDMLGVSYGHDLKYWFDNTPSSEFQRIQMRVAA
With B1 the “Antiviral EC50 Coronavirus 229E” value (human coronavirus 229E) was 2.2 µg/mL and the “CC50 HEL” value (HEL cells) was over 100 µg/mL.
